Assay results published in patent US9399631B2, “Polyphenol proteasome inhibitors, synthesis, and methods of use” (UNIVERSITY OF SOUTH FLORIDA, priority 2003, dated 2016).

How the values were obtained:
[1] = tested on: LNCaP cells; assay: Cell-free caspase-3 activity assay, LNCaP cells; assay type: cell-based, human; conditions: 10 μM, normalized to 0 hours
Experimental: To examine whether (+)-EGCG could induce apoptosis only in LNCaP, but not DU-145, cells, both cell lines were treated with 10 μM (+)-EGCG for 0, 24, 48 or 72 hours, followed by performance of cell-free caspase-3 activity assay. Cells were harvested at each sequential time-point and activity was determined by incubating whole cell extracts with caspase-3 substrate and measuring free AMCs (FIG. 20C). All the time-points were normalized to 0 hours. (+)-EGCG activated caspase-3 in LNCaP cells in a time-dependent manner: by 2.5-, 3.5- and 6-fold at 24, 48 and 72 hours, respectively (FIG. 20C). In contrast, little caspase-3 activity was detected in (+)-EGCG-treated in DU145 cells: only ˜2-fold induction at 72 hours (FIG. 20C). In the same experiment, (−)-EGCG at 10 μM was used as a control. […] Therefore, the abilities of (+)-EGCG to activate apoptotic program in these prostate cancer cell lines are correlated well to their abilities to accumulate Bax protein levels to a critical high threshold (compare FIGS. 20C and 20D vs. 20B). Values are means of triplicate independent experiments and error bars denote standard deviations.

[2] = tested on: prokaryotic 20S proteasome; assay: Dialysis assay for irreversible inhibition, prokaryotic 20S proteasome; assay type: biochemical, Methanosarcina thermophile
Experimental: Materials. Highly purified tea polyphenols (−)-EGCG (>95%), (−)-GCG (>98%), (−)-ECG (>98%), (−)-CG (>98%), fetal calf serum, propidium iodide, 3-[4,5-dimethylthiazol-2-yl]-2,5-diphenyltetrazolium bromide (MTT), RNase A, and DMSO were purchased from Sigma (St. Louis, Mo.). (+)-EGCG, benzyl-protected-(+)-EGCG, (+)-GCG, (−)-EGCG-amide, and (+)-EGCG-amide were prepared by enantioselective synthesis (see below). Purified 20S eukaryotic proteasome from rabbit was purchased from BOSTON BIOCHEM (Cambridge, Mass.). Purified 20S prokaryotic proteasome (Methanosarcina thermophile, Recombinant, E. coli) was purchased from CALBIOCHEM (La Jolla, Calif.). Fluorogenic peptide substrates Suc-Leu-Leu-Val-Tyr-AMC (for the proteasomal chymotrypsin-like activity) was obtained from Calbiochem (La Jolla, Calif.). RPMI 1640 medium, Dulbecco's modified Eagle's medium, MEM non-essential amino acids solution, MEM-sodium pyruvate solution, penicillin, and streptomycin were from INVITROGEN (Carlsbad, Calif.). Monoclonal antibody to p27^Kip was purchased from PHARMINGEN (San Diego, Calif.); polyclonal antibodies to IκB-α, Bax and actin, and monoclonal antibody to ubiquitin were from SANTA CRUZ Biotechnology Inc. (Santa Cruz, Calif.).
Assays for irreversible inhibition. To measure the effect of dialysis on (−)-EGCG-mediated proteasome inhibition, 20S prokaryotic proteasome (2 μg) was incubated with 10 μM (−)-EGCG or the control solvent (H2O) in 50 mM Tris-HCl, pH 7.5 for 1 hour. This was then incubated at 4° C. either without or with dialysis overnight using a 10,000 MWCO Pierce Slide-A-Lyzer Dialysis Cassette (Rockford, Ill.) in a rotating bath of 50 mM Tris-HCl, pH 7.5. The proteasomal chymotrypsin-like activity was then assayed as previously described. As a control, an EGCG solution (without purified 20S proteasome) was dialyzed overnight, followed by measurement of the effects on inhibition of the proteasome activity.
To investigate the nature of (−)-EGCG-mediated proteasome inhibition, a dialysis experiment was performed. […]

[3] = tested on: WI-38 cells; assay: Western blot of p27 in normal WI-38 fibroblasts; assay type: cell-based, human; conditions: 25 μM, 36 hours
Experimental: Cell Culture, Cell Extract Preparation, and Western Blot Assay. Human leukemia Jurkat T and prostate cancer LNCaP cells were cultured in RPMI 1640 medium supplemented with 10% fetal calf serum, 100 units/ml of penicillin, and 100 μg/ml streptomycin. Human immortalized, non-transformed NK cells (YT cell line) (38) were cultured in RPMI 1640 supplemented with 1 mM MEM sodium pyruvate solution, 0.1 mM MEM non-essential amino acids solution, 10% fetal calf serum. 100 units/ml penicillin, and 100 μg/ml streptomycin. Normal (WI-38) and simian virus 40 (SV40)-transformed (VA-13) human fibroblasts were grown in Dulbecco's modified Eagle's medium supplemented with 10% fetal calf serum, 100 units/ml of penicillin and 100 μg/ml of streptomycin. All cells were maintained at 37° C. in a humidified incubator with an atmosphere of 5% CO2. A whole cell extract was prepared in accordance with An et al. (An, B. et al. Cell Death Differ, 1998, 5:1062-75). Briefly, cells were harvested, washed with PBS twice, and homogenized in a lysis buffer [50 mM Tris-HCl (pH 8.0), 5 mM EDTA, 150 mM NaCl, 0.5% NP-40, 0.5 mM phenylmethylsulfonyl fluoride, and 0.5 mM dithiothreitol] for 30 min at 4° C. […] The ratio of p27 or IκB-α to the corresponding actin was determined by scanning intensities of the protein bands. […]

**Q.** What does the source list for `O=C(OC1Cc2c(O)cc(O)cc2OC1c1cc(O)c(O)c(O)c1)c1cc(O)c(O)c(O)c1` (single isomer, unassigned; (+)) [(+)-EGCG]?
**A.** caspase-3 activation ([1]; 24 hours): 2.5 fold; caspase-3 activation ([1]; 48 hours): 3.5 fold; caspase-3 activation ([1]; 72 hours): 6 fold

**Q.** `O=C(O[C@@H]1Cc2c(O)cc(O)cc2O[C@@H]1c1cc(O)c(O)c(O)c1)c1cc(O)c(O)c(O)c1` [(−)-EGCG, (−)-epigallocatechin-3-gallate, reference compound] was tested. Which “inhibition of chymotrypsin-like activity” value ([2]; 10 μM, 1 h pre-incubation, overnight dialysis) did it give?
**A.** 81%

**Q.** What about the “inhibition of chymotrypsin-like activity” value ([2]; 10 μM, absence of dialysis) of the same molecule?
**A.** 85%

**Q.** What about the “inhibition of chymotrypsin-like activity” value ([2]; compound dialyzed overnight before addition to proteasome (EGCG pre)) of the same molecule?
**A.** no inhibition was observed

**Q.** How did the p27 levels [3] turn out when `O=C(N[C@@H]1Cc2c(O)cc(O)cc2O[C@@H]1c1cc(O)c(O)c(O)c1)c1cc(O)c(O)c(O)c1` [(−)-EGCG-amide, (−)-[2R,3R]-N-[5,7-Dihydroxy-2-(3,4,5-trihydroxyphenyl)-chroman-3-yl]-3,4,5-trihydroxybenzamide] was run?
**A.** slightly increased
